Paper PMC6315362, “Cytotoxic Potential of the Novel Horseshoe Crab Peptide Polyphemusin III” (Marine Drugs, 2018)
Where a SMILES comes first, the peptide text is derived from it. Bridges are numbered along the chain shown (N, C = ends).

Columns and labels:
E. coli ML-35p = assay: Antimicrobial assay, broth microdilution MIC; type: cell-based, Escherichia coli; settings: Gram -, MH medium with NaCl, peptide diluted in 0.1% BSA, 10^6 CFU/mL, 24 h 37 °C, median of three independent triplicated experiments
Description: (§1) Bacterial test cultures were grown in the Mueller-Hinton (MH) medium at 37 °C to mid-log phase and then diluted with the 2 x MH medium supplemented with 1.8% NaCl. 50 µL of the bacterial suspension with a final cell concentration of 10^6 CFU/mL were added to aliquots of 50 µL of the peptide solutions and serially diluted with sterilized 0.1% bovine serum albumin in 96-well flat-bottom polystyrene microplates (Eppendorf, Hamburg, Germany). Bacterial cells were incubated for 24 h at 37 °C and 900 rpm on the plate thermoshaker (Biosan, Riga, Latvia). The minimum inhibitory concentrations (MIC) were determined as the lowest peptide concentration that prevented growth of a test microorganism observed as visible turbidity. The results were expressed as median values of three independent triplicated experiments. Assessment of antimicrobial activities of the recombinant PM III, other polyphemusins, and tachyplesins was conducted against Gram-negative (Escherichia coli ML-35p, Klebsiella pneumoniae (clinical isolate, CI 287), Pseudomonas aeruginosa PAO1) and Gram-positive (Staphylococcus aureus ATCC 29213, Staphylococcus aureus 209P, Bacillus subtilis B-886, Micrococcus luteus B-1314) bacteria.

P. aeruginosa PAO1 = assay: Antimicrobial assay, broth microdilution MIC; type: cell-based, Pseudomonas aeruginosa; settings: P. aeruginosa PAO1, Gram -, MH medium with NaCl, 24 h 37 °C, median of three independent triplicated experiments
Description: as §1

B. subtilis B-886 = assay: Antimicrobial assay, broth microdilution MIC; type: cell-based, Bacillus subtilis; settings: B. subtilis B-886, Gram +, MH medium with NaCl, 24 h 37 °C, median of three independent triplicated experiments
Description: as §1

M. luteus B-1314 = assay: Antimicrobial assay, broth microdilution MIC; type: cell-based, Micrococcus luteus; settings: M. luteus B-1314, Gram +, MH medium with NaCl, 24 h 37 °C, median of three independent triplicated experiments
Description: as §1

human red blood cells = assay: Hemolytic activity assay; type: cell-based; settings: for hemolysis at the maximal concentration: 100 µM peptide, human red blood cells 4% (v/v) in PBS pH 7.4, 1.5 h 37 °C, 0.1% Triton X-100 = 100%
Description: Testing of the hemolytic activity of polyphemusins and tachyplesins was performed using fresh human red blood cells (hBRC). Permeabilization of erythrocyte cytoplasmic membrane results in lysis followed by the release of hemoglobin. hBRC were washed three times with phosphate buffered saline (PBS: 10 mM Na2HPO4, 1.76 mM K2HPO4, pH 7.4, containing […], and 2.7 mM KCl). Two-fold serial dilutions of the peptide solutions were added to 50 μL aliquots of hRBC in the 96-well microplate. The final hBRC concentration was of 4% (v/v) in each well, and the final volume of suspension was 100 μL. After incubation of suspensions for 1.5 h at 37 °C under stirring at 1000 rpm, centrifugation of plates was done at 700 g for 5 min. The supernatant 50 μL aliquots were then transferred into flat-bottomed 96-well microplates. The absorbance at 405 nm was measured in a microplate reader (Eppendorf, Hamburg, Germany), allowing the detection of hemoglobin release. 0.1% Triton X-100 caused a complete lysis of erythrocytes, thus hBRC treated with Triton X-100 were used as a positive control. […] The percentage of hemolysis was calculated using the following Equation (1):Hemolysis (%) = (OD405 sample − OD405 0% lysis control)/(OD405 100% lysis control − OD405 0% lysis control) × 100%(1)
The quantitative data resulted from two series of experiments were represented as average means with standard deviations. The experiments were carried out using hBRC obtained from human blood samples of independent donors.

[1] = RP-HPLC retention time as measure of hydrophobicity; type: physicochemical; settings: semi-preparative RP-HPLC, C18 column, linear gradient 5 to 80% (v/v) acetonitrile in water with 0.1% TFA within 1 h; used as indicator of hydrophobicity
Excerpt: The PM III IC50 values were lower than those determined for PM I and PM II. We speculate that the higher cytotoxicity of PM III might be due to its higher hydrophobicity. In comparison to other tested peptides, the retention time of PM III measured during RP-HPLC indicated its higher hydrophobicity (Table 1). […] Increased hydrophobicity of these analogs caused higher cytotoxic effects. […] Cell membranes contain different phospholipids, which sustain the amphipathic features due to the formation of hydrophilic and hydrophobic domains in the membrane structure. Well-known differences between the composition of bacterial and mammalian cell membranes provide the evidence for selectivity of the peptides’ action. Bacterial membranes predominantly consist of phosphatidylserine, phosphatidylglycerol, and cardiolipin having a net negative charge. Tumor cell bilayers are also enriched in anionic molecules, such as phosphatidylserine, sialylated gangliosides, O-glycosylated mucins, and heparin sulfate. In contrast, zwitterionic phospholipids—phosphatidylcholine, phosphatidylethanolamine, and sphingomyelin—are abundant in the cytoplasmic membranes of non-cancer mammalian cells. Electrically neutral normal mammalian membranes prevent their recognition by positively charged antimicrobial peptides, and binding to these membranes is enabled by hydrophobic interactions. Thus, modulation of hydrophobicity of antimicrobial peptides, and also peptoid molecules, may be followed by non-specific interaction with erythrocytes as it was shown in previously published studies. […] Suboptimal high hydrophobic properties may not only result in increased toxicity to erythrocytes, but even in a reduction of antibacterial activity. Several protegrin-1 synthetic analogs with different hydrophobicities were characterized earlier. The analog with substitutions of valine by leucine that was more hydrophobic than naturally occurring protegrin-1 and the analog with substitutions of valine by fluorinated leucine had the most hydrophobic properties than other tested peptides. […] Therefore, half-hemolysis concentration and IC50 effective concentration were in different ranges.

In the case of `CC(C)[C@@H]1NC(=O)[C@H](CCCNC(=N)N)NC(=O)[C@H](Cc2ccccc2)NC(=O)[C@@H](NC(=O)[C@H](Cc2c[nH]c3ccccc23)NC(=O)[C@H](CCCNC(=N)N)NC(=O)[C@@H](N)CCCNC(=N)N)CSSC[C@@H](C(=O)N[C@@H](CCCNC(=N)N)C(=O)O)NC(=O)[C@H](CCCCN)NC(=O)[C@H](CCCNC(=N)N)NC(=O)[C@H](Cc2ccc(O)cc2)NC(=O)[C@@H]2CSSC[C@H](NC1=O)C(=O)N[C@@H](Cc1ccc(O)cc1)C(=O)N[C@@H](CCCNC(=N)N)C(=O)NCC(=O)N[C@@H](Cc1ccccc1)C(=O)N2` [PM I, polyphemusin I] (H-RRWCFRVCYRGFCYRKCR-OH; disulfide 4-17, 8-13 (inferred); N-terminus assumed), the MICs (E. coli ML-35p) was 0.062 µM, the MICs (P. aeruginosa PAO1) was 0.5 µM and the MICs (B. subtilis B-886) was 0.25 µM. The MICs (M. luteus B-1314) was 0.5 µM, the “hemolysis at the maximal concentration” value (human red blood cells) was ~ 45% and the “RP-HPLC Retention Time” value [1] was 35.5 min.

`CC(C)[C@@H]1NC(=O)[C@H](CCCNC(=N)N)NC(=O)[C@H](Cc2ccccc2)NC(=O)[C@@H](NC(=O)[C@H](Cc2c[nH]c3ccccc23)NC(=O)[C@H](CCCNC(=N)N)NC(=O)[C@@H](N)CCCNC(=N)N)CSSC[C@@H](C(=O)N[C@@H](CCCNC(=N)N)C(=O)O)NC(=O)[C@H](CCCCN)NC(=O)[C@H](CCCNC(=N)N)NC(=O)[C@H](Cc2ccc(O)cc2)NC(=O)[C@@H]2CSSC[C@H](NC1=O)C(=O)N[C@@H](Cc1ccc(O)cc1)C(=O)N[C@@H](CCCCN)C(=O)NCC(=O)N[C@@H](Cc1ccccc1)C(=O)N2` [PM II, polyphemusin II] (H-RRWCFRVCYKGFCYRKCR-OH; disulfide 4-17, 8-13 (inferred); N-terminus assumed) showed an MICs (E. coli ML-35p) of 0.031 µM, an MICs (P. aeruginosa PAO1) of 0.5 µM and an MICs (B. subtilis B-886) of 0.5 µM. For the same molecule, the MICs (M. luteus B-1314) was 1 µM, the “hemolysis at the maximal concentration” value (human red blood cells) was ~ 30% and the “RP-HPLC Retention Time” value [1] was 35.4 min.

For `CC(C)[C@@H]1NC(=O)[C@H](CCCNC(=N)N)NC(=O)[C@H](Cc2ccccc2)NC(=O)[C@@H](NC(=O)CNC(=O)[C@H](CCCNC(=N)N)NC(=O)[C@@H](N)CCCNC(=N)N)CSSC[C@@H](C(=O)N[C@@H](CCCNC(=N)N)C(=O)O)NC(=O)[C@H](CCCNC(=N)N)NC(=O)[C@H](CCC(N)=O)NC(=O)[C@H](Cc2ccccc2)NC(=O)[C@@H]2CSSC[C@H](NC1=O)C(=O)N[C@@H](Cc1ccc(O)cc1)C(=O)N[C@@H](CCCNC(=N)N)C(=O)NCC(=O)N[C@@H](Cc1ccccc1)C(=O)N2` [PM III, polyphemusin III] (H-RRGCFRVCYRGFCFQRCR-OH; disulfide 4-17, 8-13 (inferred); N-terminus assumed), the MICs (E. coli ML-35p) was 0.25 µM, the MICs (P. aeruginosa PAO1) was 0.5 µM and the MICs (B. subtilis B-886) was 0.5 µM. For the same molecule, the MICs (M. luteus B-1314) was 0.5 µM, the “HC50 relative to IC50 measured for the HL-60 cell line” value (human red blood cells; HC50 / IC50 (HL-60)) was 18 fold and the “half-hemolysis concentration (HC50)” value (human red blood cells; fresh human red blood cells 4% (v/v) in PBS pH 7.4, 1.5 h 37 °C, absorbance 405 nm, two independent series of triplicated experiments) was 46 µM. The “RP-HPLC Retention Time” value [1] was 36.2 min.

`CC[C@H](C)[C@@H]1NC(=O)CNC(=O)[C@H](CCCNC(=N)N)NC(=O)[C@H](Cc2ccc(O)cc2)NC(=O)[C@@H]2CSSC[C@H](NC1=O)C(=O)N[C@@H](Cc1ccc(O)cc1)C(=O)N[C@@H](CCCNC(=N)N)C(=O)N[C@@H](CCCNC(=N)N)C(=O)N[C@H](C(=O)N[C@@H](CCCNC(=N)N)C(=O)O)CSSC[C@H](NC(=O)[C@H](Cc1c[nH]c3ccccc13)NC(=O)[C@@H](N)CCCCN)C(=O)N[C@@H](Cc1ccccc1)C(=O)N[C@@H](CCCNC(=N)N)C(=O)N[C@@H](C(C)C)C(=O)N2` [TP I, tachyplesin I] (H-KWCFRVCYRGICYRRCR-OH; disulfide 3-16, 7-12 (inferred); N-terminus assumed) gave an MICs (E. coli ML-35p) of 0.062 µM, an MICs (P. aeruginosa PAO1) of 0.5 µM and an MICs (B. subtilis B-886) of 0.5 µM. For the same molecule, the MICs (M. luteus B-1314) was 1 µM, the “hemolysis at the maximal concentration” value (human red blood cells) was 38% and the “RP-HPLC Retention Time” value [1] was 35.5 min.

`CC[C@H](C)[C@@H]1NC(=O)CNC(=O)[C@H](CCCNC(=N)N)NC(=O)[C@H](Cc2ccc(O)cc2)NC(=O)[C@@H]2CSSC[C@H](NC1=O)C(=O)N[C@@H](Cc1ccc(O)cc1)C(=O)N[C@@H](CCCNC(=N)N)C(=O)N[C@@H](CCCCN)C(=O)N[C@H](C(=O)N[C@@H](CCCNC(=N)N)C(=O)O)CSSC[C@H](NC(=O)[C@H](Cc1c[nH]c3ccccc13)NC(=O)[C@@H](N)CCCNC(=N)N)C(=O)N[C@@H](Cc1ccccc1)C(=O)N[C@@H](CCCNC(=N)N)C(=O)N[C@@H](C(C)C)C(=O)N2` [TP II, tachyplesin II] (H-RWCFRVCYRGICYRKCR-OH; disulfide 3-16, 7-12 (inferred); N-terminus assumed) showed an MICs (E. coli ML-35p) of 0.062 µM, an MICs (P. aeruginosa PAO1) of 0.5 µM and an MICs (B. subtilis B-886) of 0.5 µM. For the same molecule, the MICs (M. luteus B-1314) was 1 µM, the “hemolysis at the maximal concentration” value (human red blood cells) was 33% and the “RP-HPLC Retention Time” value [1] was 35.9 min.

`CC[C@H](C)[C@@H]1NC(=O)CNC(=O)[C@H](CCCNC(=N)N)NC(=O)[C@H](Cc2ccc(O)cc2)NC(=O)[C@@H]2CSSC[C@H](NC1=O)C(=O)N[C@@H](Cc1ccc(O)cc1)C(=O)N[C@@H](CCCNC(=N)N)C(=O)N[C@@H](CCCCN)C(=O)N[C@H](C(=O)N[C@@H](CCCNC(=N)N)C(=O)O)CSSC[C@H](NC(=O)[C@H](Cc1c[nH]c3ccccc13)NC(=O)[C@@H](N)CCCCN)C(=O)N[C@@H](Cc1ccccc1)C(=O)N[C@@H](CCCNC(=N)N)C(=O)N[C@@H](C(C)C)C(=O)N2` [TP III, tachyplesin III] (H-KWCFRVCYRGICYRKCR-OH; disulfide 3-16, 7-12 (inferred); N-terminus assumed) gave an MICs (E. coli ML-35p) of 0.062 µM, an MICs (P. aeruginosa PAO1) of 0.5 µM and an MICs (B. subtilis B-886) of 1 µM. The MICs (M. luteus B-1314) was 2 µM, the “hemolysis at the maximal concentration” value (human red blood cells) was 20% and the “RP-HPLC Retention Time” value [1] was 35.5 min.
